Measurements taken from patent publication US20140213447A1, “HERBICIDAL COMPOSITIONS COMPRISING 4-AMINO-3-CHLORO-6-(4-CHLORO-2-FLUORO-3-METHOXYPHENYL) PYRIDINE-2-CARBOXYLIC ACID OR A DERIVATIVE THEREOF AND CERTAIN TRIAZOLOPYRIMIDINE SULFONAMIDES” (DOW AGROSCIENCES LLC, priority 2013, published 2014).

Tests used:
Assay type in all cases: in vivo
Conditions in all cases: alone, 14 d
[1] = test system: Setaria faberi Herrm. (giant foxtail); test: Postemergent herbicidal activity, greenhouse foliar application, SETFA
Method: (§1) Evaluation of Postemergent Herbicidal Activity. Seeds or nutlets of the desired test plant species were planted in Sun Gro Metro-Mix® 360 planting mixture, which typically has a pH of 6.0 to 6.8 and an organic matter content of about 30 percent, in plastic pots with a surface area of 64 square centimeters (cm^2). When required to ensure good germination and healthy plants, a fungicide treatment and/or other chemical or physical treatment was applied. The plants were grown for 7-21 days (d) in a greenhouse with an approximate 15 hour (h) photoperiod which was maintained at about 23-29° C. during the day and 22-28° C. during the night. Nutrients and water were added on a regular basis and supplemental lighting was provided with overhead metal halide 1000-Watt lamps as necessary. The plants were employed for testing when they reached the first or second true leaf stage.
(§2) A weighed amount, determined by the highest rate to be tested, of each test compound was placed in a 25 milliliter (mL) glass vial and was dissolved in 4 mL of a 97:3 volume per volume (v/v) mixture of acetone and dimethyl sulfoxide (DMSO) to obtain concentrated stock solutions. […] The concentrated stock solutions obtained were diluted with 20 mL of an aqueous mixture containing acetone, water, isopropyl alcohol, DMSO, Atplus 411F crop oil concentrate, and Triton® X-155 surfactant in a 48.5:39:10:1.5:1.0:0.02 v/v ratio to obtain spray solutions containing the highest application rates. Additional application rates were obtained by serial dilution of 12 mL of the high rate solution into a solution containing 2 mL of a 97:3 v/v mixture of acetone and DMSO and 10 mL of an aqueous mixture containing acetone, water, isopropyl alcohol, DMSO, Atplus 411F crop oil concentrate, and Triton X-155 surfactant in a 48.5:39:10:1.5:1.0:0.02 v/v ratio to obtain ½×, ¼×, ⅛× and 1/16× rates of the high rate. Compound requirements are based upon a 12 mL application volume at a rate of 187 liters per hectare (L/ha). Formulated compounds were applied to the plant material with an overhead Mandel track sprayer equipped with 8002E nozzles calibrated to deliver 187 L/ha over an application area of 0.503 square meters (m^2) at a spray height of 18 inches ([…]) above the average plant canopy height. Control plants were sprayed in the same manner with the solvent blank.
(§3) Treatments consisted of the methyl ester of 4-amino-3-chloro-6-(4-chloro-2-fluoro-3-methoxyphenyl)pyridine-2-carboxylic acid (Cmpd 1) as technical grade material and cloransulam-methyl (FirstRate®) and diclosulam (Strongarm®) alone and in combination. The form of compound of formula (I) was applied on an acid equivalent basis, and cloransulam-methyl and diclosulam were applied on an active ingredient basis.
(§4) The treated plants and control plants were placed in a greenhouse as described above and watered by subirrigation to prevent wash-off of the test compounds. After 14 d, the condition of the test plants as compared with that of the untreated plants was determined visually and scored on a scale of 0 to 100 percent where 0 corresponds to no injury and 100 corresponds to complete kill.
(§5) Results in Tables 1 and 2 are greenhouse trial results for foliar applied compositions. The values reported are percent (%) control visually rated. Colby's equation was used to determine the herbicidal effects expected from the mixtures (Colby, S. R. Calculation of the synergistic and antagonistic response of herbicide combinations. Weeds 1967, 15, 20-22.). More specifically, the following equation was used to calculate the expected activity of mixtures containing two active ingredients, A and B:
(§6) Expected=A+B−(A×B/100) • A=observed efficacy of active ingredient A at the same concentration as used in the mixture; • B=observed efficacy of active ingredient B at the same concentration as used in the mixture.

[2] = test system: Amaranthus retroflexus L. (redroot pigweed); test: Postemergent herbicidal activity, greenhouse foliar application, AMARE
Method: as §1, §2, §3, §4, §5, §6

[3] = test system: Brassica napus (winter oilseed rape); test: Postemergent herbicidal activity, greenhouse foliar application, BRSNW
Method: as §1, §2, §3, §4, §5, §6

[4] = test system: Stellaria media (L.) Vill. (common chickweed); test: Postemergent herbicidal activity, greenhouse foliar application, STEME
Method: as §1, §2, §3, §4, §5, §6

[5] = test system: Cyperus esculentus L. (yellow nutsedge); test: Postemergent herbicidal activity, greenhouse foliar application, CYPES
Method: as §1, §2, §3, §4, §5, §6

[6] = test system: Chenopodium album L. (common lambsquarters); test: Postemergent herbicidal activity, greenhouse foliar application, CHEAL
Method: as §1, §2, §3, §4, §5, §6

[7] = test system: Viola tricolor (L.) (wild pansy); test: Postemergent herbicidal activity, greenhouse foliar application, VIOTR
Method: as §1, §2, §3, §4, §5, §6

[8] = test system: Sorghum vulgare (common sorghum); test: Postemergent herbicidal activity, greenhouse foliar application, SORVU
Method: as §1, §2, §3, §4, §5, §6

[9] = test system: Ipomoea hederacea (L.) Jacq. (ivyleaf momingglory); test: Postemergent herbicidal activity, greenhouse foliar application, IPOHE
Method: as §1, §2, §3, §4, §5, §6

COC(=O)c1nc(-c2ccc(Cl)c(OC)c2F)cc(N)c1Cl [Cmpd 1, methyl 4-amino-3-chloro-6-(4-chloro-2-fluoro-3-methoxyphenyl)pyridine-2-carboxylate]
SETFA Obs, percent (%) control rated visually ([1]; 1.25 g ae/ha): 0%
SETFA Obs, percent (%) control rated visually ([1]; 2.5 g ae/ha): 0%
SETFA Obs, percent (%) control rated visually ([1]; 5 g ae/ha): 30%
AMARE Obs, percent (%) control rated visually ([2]; 1.25 g ae/ha): 50%
AMARE Obs, percent (%) control rated visually ([2]; 2.5 g ae/ha): 60%
AMARE Obs, percent (%) control rated visually ([2]; 5 g ae/ha): 90%
BRSNW Obs, percent (%) control rated visually ([3]; 1.25 g ae/ha): 0%
BRSNW Obs, percent (%) control rated visually ([3]; 2.5 g ae/ha): 5%
BRSNW Obs, percent (%) control rated visually ([3]; 5 g ae/ha): 20%
STEME Obs, percent (%) control rated visually ([4]; 1.25 g ae/ha): 30%
STEME Obs, percent (%) control rated visually ([4]; 2.5 g ae/ha): 20%
STEME Obs, percent (%) control rated visually ([4]; 5 g ae/ha): 40%
CYPES Obs, percent (%) control rated visually ([5]; 1.25 g ae/ha): 50%
CYPES Obs, percent (%) control rated visually ([5]; 2.5 g ae/ha): 90%
CYPES Obs, percent (%) control rated visually ([5]; 5 g ae/ha): 93%
CHEAL Obs, percent (%) control rated visually ([6]; 1.25 g ae/ha): 70%
CHEAL Obs, percent (%) control rated visually ([6]; 2.5 g ae/ha): 80%
CHEAL Obs, percent (%) control rated visually ([6]; 5 g ae/ha): 93%
VIOTR Obs, percent (%) control rated visually ([7]; 1.25 g ae/ha): 10%
VIOTR Obs, percent (%) control rated visually ([7]; 2.5 g ae/ha): 10%
VIOTR Obs, percent (%) control rated visually ([7]; 5 g ae/ha): 30%
SORVU Obs, percent (%) control rated visually ([8]; 1.25 g ae/ha): 0%
SORVU Obs, percent (%) control rated visually ([8]; 2.5 g ae/ha): 0%
SORVU Obs, percent (%) control rated visually ([8]; 5 g ae/ha): 0%
IPOHE Obs, percent (%) control rated visually ([9]; 1.25 g ae/ha): 10%
IPOHE Obs, percent (%) control rated visually ([9]; 2.5 g ae/ha): 20%
IPOHE Obs, percent (%) control rated visually ([9]; 5 g ae/ha): 20%

CCOc1nc(F)cc2nc(S(=O)(=O)Nc3c(Cl)cccc3C(=O)OC)nn12 [cloransulam-methyl, methyl 3-chloro-2-[[(5-ethoxy-7-fluoro[1,2,4]triazolo[1,5-c]pyrimidin-2-yl)sulfonyl]amino]benzoate]
SETFA Obs, percent (%) control rated visually ([1]; 4.375 g ai/ha): 0%
SETFA Obs, percent (%) control rated visually ([1]; 8.75 g ai/ha): 0%
SETFA Obs, percent (%) control rated visually ([1]; 17.5 g ai/ha): 0%
AMARE Obs, percent (%) control rated visually ([2]; 4.375 g ai/ha): 0%
AMARE Obs, percent (%) control rated visually ([2]; 8.75 g ai/ha): 10%
AMARE Obs, percent (%) control rated visually ([2]; 17.5 g ai/ha): 20%
BRSNW Obs, percent (%) control rated visually ([3]; 4.375 g ai/ha): 90%
BRSNW Obs, percent (%) control rated visually ([3]; 8.75 g ai/ha): 93%
BRSNW Obs, percent (%) control rated visually ([3]; 17.5 g ai/ha): 95%
STEME Obs, percent (%) control rated visually ([4]; 4.375 g ai/ha): 0%
STEME Obs, percent (%) control rated visually ([4]; 8.75 g ai/ha): 0%
STEME Obs, percent (%) control rated visually ([4]; 17.5 g ai/ha): 0%
CHEAL Obs, percent (%) control rated visually ([6]; 4.375 g ai/ha): 0%
CHEAL Obs, percent (%) control rated visually ([6]; 8.75 g ai/ha): 10%
CHEAL Obs, percent (%) control rated visually ([6]; 17.5 g ai/ha): 20%
VIOTR Obs, percent (%) control rated visually ([7]; 4.375 g ai/ha): 10%
VIOTR Obs, percent (%) control rated visually ([7]; 8.75 g ai/ha): 50%
VIOTR Obs, percent (%) control rated visually ([7]; 17.5 g ai/ha): 65%
SORVU Obs, percent (%) control rated visually ([8]; 4.375 g ai/ha): 0%
SORVU Obs, percent (%) control rated visually ([8]; 8.75 g ai/ha): 10%
SORVU Obs, percent (%) control rated visually ([8]; 17.5 g ai/ha): 20%
IPOHE Obs, percent (%) control rated visually ([9]; 4.375 g ai/ha): 80%
IPOHE Obs, percent (%) control rated visually ([9]; 8.75 g ai/ha): 85%
IPOHE Obs, percent (%) control rated visually ([9]; 17.5 g ai/ha): 85%

CCOc1nc(F)cc2nc(S(=O)(=O)Nc3c(Cl)cccc3Cl)nn12 [diclosulam, N-(2,6-dichlorophenyl)-5-ethoxy-7-fluoro[1,2,4]triazolo[1,5-c]pyrimidine-2-sulfonamide]
SETFA Obs, percent (%) control rated visually ([1]; 4.375 g ai/ha): 0%
SETFA Obs, percent (%) control rated visually ([1]; 8.75 g ai/ha): 0%
SETFA Obs, percent (%) control rated visually ([1]; 17.5 g ai/ha): 0%
AMARE Obs, percent (%) control rated visually ([2]; 4.375 g ai/ha): 10%
AMARE Obs, percent (%) control rated visually ([2]; 8.75 g ai/ha): 20%
AMARE Obs, percent (%) control rated visually ([2]; 17.5 g ai/ha): 30%
BRSNW Obs, percent (%) control rated visually ([3]; 4.375 g ai/ha): 80%
BRSNW Obs, percent (%) control rated visually ([3]; 8.75 g ai/ha): 85%
BRSNW Obs, percent (%) control rated visually ([3]; 17.5 g ai/ha): 90%
STEME Obs, percent (%) control rated visually ([4]; 4.375 g ai/ha): 0%
STEME Obs, percent (%) control rated visually ([4]; 8.75 g ai/ha): 0%
STEME Obs, percent (%) control rated visually ([4]; 17.5 g ai/ha): 0%
CYPES Obs, percent (%) control rated visually ([5]; 4.375 g ai/ha): 60%
CYPES Obs, percent (%) control rated visually ([5]; 8.75 g ai/ha): 60%
CYPES Obs, percent (%) control rated visually ([5]; 17.5 g ai/ha): 70%
CHEAL Obs, percent (%) control rated visually ([6]; 4.375 g ai/ha): 0%
CHEAL Obs, percent (%) control rated visually ([6]; 8.75 g ai/ha): 10%
CHEAL Obs, percent (%) control rated visually ([6]; 17.5 g ai/ha): 40%
VIOTR Obs, percent (%) control rated visually ([7]; 4.375 g ai/ha): 10%
VIOTR Obs, percent (%) control rated visually ([7]; 8.75 g ai/ha): 50%
VIOTR Obs, percent (%) control rated visually ([7]; 17.5 g ai/ha): 70%
SORVU Obs, percent (%) control rated visually ([8]; 4.375 g ai/ha): 0%
SORVU Obs, percent (%) control rated visually ([8]; 8.75 g ai/ha): 0%
SORVU Obs, percent (%) control rated visually ([8]; 17.5 g ai/ha): 0%
IPOHE Obs, percent (%) control rated visually ([9]; 4.375 g ai/ha): 75%
IPOHE Obs, percent (%) control rated visually ([9]; 8.75 g ai/ha): 80%
IPOHE Obs, percent (%) control rated visually ([9]; 17.5 g ai/ha): 85%
